US20210222225A1, “Medium for Disk Diffusion Method to Evaluate Antibiotic Sensitivity” (priority 2018, published 2021)

How the values were obtained:
[1] = tested on: PAE P1477_S; experiment: Colistin disk diffusion, guanidine hydrochloride medium, P1477_S; assay type: cell-based, Pseudomonas aeruginosa; conditions: 30% agar
Experimental: (§1) A concentration of agar particles (BD Diagnostic, Sparks, Md., USA) in Mueller-Hinton broth medium (BD Diagnostic) was adjusted to 5.1 g/L, which is 30% of 17 g/L, and guanidine hydrochloride was added to a concentration of 500 μg/ml, 50 μg/ml, or 5 μg/ml. Then, solidification was performed. On a surface of each medium thus prepared was evenly inoculated each of colistin-susceptible (S) or -resistant (R) Acinetobacter baumannii (ABA) strain, colistin-susceptible (S) or -resistant (R) Klebsiella pnemoniae (KPN) strain, and colistin-susceptible (S) or -resistant (R) Pseudomonas aeruginosa (PAE) strain, and a colistin disk was placed thereon. Then, pictures of a growth inhibition zone, which had been formed clear, around the disk were taken for each strain, and the results are illustrated in FIGS. 8 to 10.

[2] = tested on: colistin-susceptible strains; experiment: Colistin disk diffusion, colistin-susceptible strains as a group (average, differences); assay type: cell-based; conditions: for Average, diameter (mm) of colistin inhibition zone, colistin-susceptible strains / Difference (S vs ACB-R), diameter (mm) of colistin inhibition zone / Difference (S vs mcr-1), diameter (mm) of colistin inhibition zone: protamine 100 μg/ml
Experimental: To each MHA thus modified was added protamine (Sigma-Aldrich, St Louis, Mo., USA) at a concentration of 100 μg/ml, and solidification was performed. Then, on a surface of the medium was evenly inoculated each of colistin-susceptible (S) or -resistant (R) Acinetobacter calcoaceticus-baumannii complex (ACB) strain, Pseudomonas aeruginosa ATCC27853 strain, Escherichia coli ATCC25922 strain, and mcr-1-harboring Enterobacter aerogenes strain, and a colistin disk was placed thereon. Subsequently, a diameter of a growth inhibition zone (colistin inhibition zone), which had been formed clear by diffusion of colistin to the agar around the colistin disk, was measured.
As in Example 1, a concentration of agar particles (BD Diagnostic, Sparks, Md., USA) in Mueller-Hinton broth medium (BD Diagnostic) was adjusted to 5.1 g/L, which is 30% of 17 g/L, and protamine (Sigma-Aldrich, St Louis, Mo., USA) was added thereto at a concentration of 150 μg/ml or 100 μg/ml. Then, solidification was performed. To compare effects depending on concentrations of agar and protamine, Muller-Hinton agar medium (BD Diagnostic) containing agar at a concentration of 17 g/L and medium obtained by adding, to the Muller-Hinton agar medium, protamine at a concentration of 100 μg/ml were prepared as controls. On a surface of each medium thus prepared was evenly inoculated each of colistin-susceptible (S) or -resistant (R) Acinetobacter calcoaceticus-baumannii complex (ACB) strain, Pseudomonas aeruginosa ATCC27853 strain, and mcr-1-harboring Enterobacter aerogenes strain, and a colistin disk was placed thereon. Then, it was determined whether each strain was grown, and a diameter of a growth inhibition zone, which had been formed clear around the disk, was measured. The results are illustrated in FIG. 1.
The following four bacterial strains were used to determine conditions for agar: colistin-susceptible (S) or -resistant (R) Acinetobacter calcoaceticus-baumannii complex (ACB) strain (N=2), Pseudomonas aeruginosa ATCC27853 strain, and mcr-1-harboring Enterobacter aerogenes strain. A concentration of agar particles (BD Diagnostic, Sparks, Md., USA) in Mueller-Hinton broth medium (BD Diagnostic) was adjusted to 17 g/L or 5.1 g/L that is 30% of 17 g/L. To each modified MHA was added protamine (Sigma-Aldrich, St Louis, Mo., USA) at a concentration of 100 μg/ml.
On a surface of each medium thus prepared was evenly inoculated each of colistin-susceptible (S) or -resistant (R) Acinetobacter calcoaceticus-baumannii complex (ACB) strain, Pseudomonas aeruginosa ATCC27853 strain, and mcr-1-harboring Enterobacter aerogenes strain, and a colistin disk was placed thereon. Then, it was determined whether each strain was grown, and a diameter of a colistin inhibition zone, which had been formed clear around the disk, was measured. The results are illustrated in FIGS. 2A and 2B. Pictures of an inhibition zone around the disk were taken for each strain, and the results are illustrated in FIGS. 3A, 3B, 4A, 4B, 5A, 5B, 6A and 6B.

[3] = tested on: KPN K4056_R; experiment: Colistin disk diffusion, guanidine hydrochloride medium, K4056_R; assay type: cell-based, Klebsiella pnemoniae; conditions: 30% agar
Experimental: as §1

[4] = guanidine hydrochloride 5 μg/ml
[5] = guanidine hydrochloride 50 μg/ml
[6] = guanidine hydrochloride 500 μg/ml

colistin
Disk diffusion (mm) [1, 4]: 16 mm
Disk diffusion (mm) [1, 5]: 16 mm
Disk diffusion (mm) [1, 6]: 14 mm
Average, diameter (mm) of colistin inhibition zone, colistin-susceptible strains ([2]; 30% agar): 16 mm
Difference (S vs ACB-R), diameter (mm) of colistin inhibition zone ([2]; 30% agar): 5 mm
Difference (S vs mcr-1), diameter (mm) of colistin inhibition zone ([2]; 30% agar): 5 mm
Average, diameter (mm) of colistin inhibition zone, colistin-susceptible strains ([2]; 40% agar): 15 mm
Difference (S vs ACB-R), diameter (mm) of colistin inhibition zone ([2]; 40% agar): 4 mm
Difference (S vs mcr-1), diameter (mm) of colistin inhibition zone ([2]; 40% agar): 5 mm
Average, diameter (mm) of colistin inhibition zone, colistin-susceptible strains ([2]; 50% agar): 14 mm
Difference (S vs ACB-R), diameter (mm) of colistin inhibition zone ([2]; 50% agar): 4 mm
Difference (S vs mcr-1), diameter (mm) of colistin inhibition zone ([2]; 50% agar): 3 mm
Average, diameter (mm) of colistin inhibition zone, colistin-susceptible strains ([2]; 60% agar): 14 mm
Difference (S vs ACB-R), diameter (mm) of colistin inhibition zone ([2]; 60% agar): 1 mm
Difference (S vs mcr-1), diameter (mm) of colistin inhibition zone ([2]; 60% agar): 4 mm
Average, diameter (mm) of colistin inhibition zone, colistin-susceptible strains ([2]; 70% agar): 14 mm
Difference (S vs ACB-R), diameter (mm) of colistin inhibition zone ([2]; 70% agar): 3 mm
Difference (S vs mcr-1), diameter (mm) of colistin inhibition zone ([2]; 70% agar): 4 mm
Average, diameter (mm) of colistin inhibition zone, colistin-susceptible strains ([2]; 80% agar): 13 mm
Difference (S vs ACB-R), diameter (mm) of colistin inhibition zone ([2]; 80% agar): 1 mm
Difference (S vs mcr-1), diameter (mm) of colistin inhibition zone ([2]; 80% agar): 4 mm
Average, diameter (mm) of colistin inhibition zone, colistin-susceptible strains ([2]; 90% agar): 13 mm
Difference (S vs ACB-R), diameter (mm) of colistin inhibition zone ([2]; 90% agar): 1 mm
Difference (S vs mcr-1), diameter (mm) of colistin inhibition zone ([2]; 90% agar): 3 mm
Average, diameter (mm) of colistin inhibition zone, colistin-susceptible strains ([2]; 100% agar): 13 mm
Difference (S vs ACB-R), diameter (mm) of colistin inhibition zone ([2]; 100% agar): 2 mm
Difference (S vs mcr-1), diameter (mm) of colistin inhibition zone ([2]; 100% agar): 3 mm
size of a growth inhibition zone in the colistin-susceptible strains ([2]; agar 5.1 g/L (30%) compared with 17 g/L, FIG. 1): increased
diameter of the growth inhibition zone in the colistin-susceptible strains ([2]; agar 5.1 g/L and protamine 100 μg/ml compared with agar 17 g/L, FIGS. 2A to 6B): remarkably increased
Disk diffusion (mm) [3, 4]: 12 mm
Disk diffusion (mm) [3, 5]: 12 mm
Disk diffusion (mm) [3, 6]: 10 mm
